The values that follow come from US9096544B2, “Therapeutic compounds” (Wayne State University, priority 2009, dated 2015).

The test system of assay [1] is PANC-1 cells. The assay is described as follows: Test I: growth inhibition of PANC-1 cells (MTT). As to conditions: 1 μM. Type of assay: cell-based. The protocol: (§1) Pancreatic cancer cell lines (COLO357, PANC-1, Capan-2, AsPc-1 cells and MiaPaCa-2 cells obtained from American Type Culture Collection; ATCC, Rockville, Md.) were treated with 1 μM 3-Cl-AHPC and compound 16 for various times. Apoptosis in cells were analyzed by flow cytometry using Annexin V-FITC binding together with propidium iodide (PI) staining (Annexin V-FITC apoptosis Detection Kit 1, BD Biosciences, San Diego, Calif.). Data acquisition was done on a FACS Calibur flow cytometer (BD) and analyzed with CellQuest software (BD Biosciences). 3-Cl-AHPC and compound 16 mediated inhibition of cell growth were determined by 3-(4,5-dimethylthiazol-2-yl)-2,5-diphenyltetrazolium bromide (MTT) assay. The cells were seeded on 96-well plates at a density of 4×10^4 cells/well in a volume of 200 μl culture medium. 1 μM AHP3 and 3-Cl-AHPC in DMSO (final concentration 0.1%) were added to the cells for various times. […] After discarding the medium, MTT precipitates were solubilized with 200 μl DMSO and the plates read on a BioTeK Synergy HT (BioTeK Instrument Inc., Vermont) at an absorbance 570 nm. […] The spheroids were stained with acridine orange/ethidium bromide staining and immediately visualized and photographed with fluorescence microscope (OLYMPUS CKX41). […] Then spheroids were visualized and photographed with a fluorescence microscope.

Assay [2] relates to Capan-2 cells. The assay is described as follows: Test I: apoptosis of Capan-2 pancreatic cancer cells (Annexin V-FITC/PI). The assay is classed as cell-based. As to conditions: 1 μM, 48 h. The protocol:
as §1

In assay [3] the test system is Capan-2 cells. The assay is described as follows: Test I: growth inhibition of Capan-2 cells (MTT). The assay is classed as cell-based. As to conditions: 1 μM. The protocol:
as §1

The test system of assay [4] is FFMA-AML cells. The experiment in a line: Annexin V-FITC binding by flow cytometry, FFMA-AML cells. The assay is classed as cell-based, human. As to conditions: 1 μM, varying times. The protocol:
FIG. 3 illustrates the induction of apoptosis and cell death as assessed using Annexin V-FITC binding together with propidium iodide (PI) staining. FFMA-AML and TF(vSRC) cells were exposed to 1 μM 3-Cl-AHPC or compound 16. A) Apoptosis in FFMA-AML and TF(vSRC) cells following 24 and 48 h ARR exposure, respectively. The plots show the distribution of classes of fluorescence intensity versus cell number. The bottom left quadrant represents live cells (both annexin V-FITC and PI negative); the bottom right quadrant represents early apoptotic cells (annexin V-FITC positive but PI negative); and the top right quadrant represents late apoptotic cells (both annexin V-FITC and PI positive). B) Percentage of early apopotic Annexin V-positive cells at the indicated times. […] (p values of <0.05, <0.01 and <0.001 respectively, as determined by the t test).
Apoptosis of cells was determined by (1) acridine orange and ethidium bromide-staining to assess cells with nuclear fragmentation and chromatin condensation as previously described (Farhana L. et al., Cancer Res. 2006; 65:4909-4917) and (2) flow cytometry assessing Annexin V-FITC binding together with propidium iodide staining (Annexin V-FITC apoptosis Detection kit 1, BD Biosciences, San Diego, Calif.). Data acquisition was done on a FACS Calibur flow cytometer (BD) and analyzed with CellQuest software. […]

Assay [5] deals with TF(v-SRC) cells. The assay is described as follows: Test B: apoptosis of TF(v-SRC) cells (acridine orange/ethidium bromide, nuclear fragmentation). Type of assay: cell-based. As to conditions: nuclear fragmentation, FIG. 2A/B (96 h), read-out: ED50 of apoptosis induction. How it is done:
FIG. 2 illustrates apoptosis induction in FFMA-AML and TF(v-SRC) cells by 3-Cl-AHPC and compound 16. Cells were seeded at 1×10^4 cells/ml, grown for 24 h and then exposed to 1 μM compound 16 or 3-Cl-AHPC A) at various concentrations of the compound for 96 h and B) for increasing times of exposure. C) Induction of apoptosis by 3-Cl-AHPC, all-trans-retinoic acid, 9-cis-retinoic acid and TTNPB in FFMA-AML and TF(v-SRC) cells. The percentage of apoptotic cells was determined using acridine orange and ethidium bromide staining to determine nuclear fragmentation as described in the general biochemical and pharmacological materials and methods. The error bars represent the mean of three separate determinations +/− the standard deviation (SD).
FFMA-AML cells were obtained from a patient with a diagnosis of AML as indicated by the immunophenotyping described in Table 1. This patient was refractory to the chemotherapy regimens consisting of cytosine arabinoside given with daunomycin as well as high-dose cytosine arabinoside. Peripheral blood samples were obtained from the patient utilizing a Wayne State University Institutional Review Board approved protocol and the leukemic blasts were isolated utilizing Ficoll hypaque. The isolated leukemic cells (representing >99% of the cells) were subsequently cultured in RPMI 1640 supplemented with 10% heat-inactivated fetal bovine serum (FBS) and growth factors interleukin 3 (IL-3), granulocyte-colony stimulating factor (G-CSF), granulocyte/macrophage colony-stimulating factor (GM-CSF), and stem cell factor (SCF) as we have previously reported, and then the cells were maintained in 10% FBS and gentamycin (Zhang Y. et al., Blood, 2003; […]:3743-3752). The TF(v-SRC) leukemia cells have been previously described (Black J. H. et al., Leukemia. 2003; 17:155-159). TF(v-SRC) cells were grown in RPMI 1640 supplemented with 10% heat inactivated FBS.
Apoptosis of cells was determined by (1) acridine orange and ethidium bromide-staining to assess cells with nuclear fragmentation and chromatin condensation as previously described (Farhana L. et al., Cancer Res. 2006; 65:4909-4917) and (2) flow cytometry assessing Annexin V-FITC binding together with propidium iodide staining (Annexin V-FITC apoptosis Detection kit 1, BD Biosciences, San Diego, Calif.). Data acquisition was done on a FACS Calibur flow cytometer (BD) and analyzed with CellQuest software.
Cells were grown in the presence and absence of increasing concentrations of either 3-Cl-AHPC or compound 16 and for varying periods of time. There was a progressive increase in 3-Cl-AHPC- and compound 16-mediated apoptosis in both FFMA-AML and TF(v-SRC) cells with time and with increasing concentrations of the compounds. […] We therefore tested the sensitivity of FFMA-AML and TF(v-SRC) cells to apoptosis induction by tRA, 9-cis RA, and TTNPB (FIG. 2C).

For the compound `O=C(O)C=Cc1ccc(-c2ccc(O)c(C34CC5CC(CC(C5)C3)C4)c2)c(Cl)c1` [Compound 3-Cl-AHPC, 4-[3-(1-adamantyl)-4-hydroxyphenyl]-3-chlorocinnamic acid, reference compound], the inhibition of growth result in assay [1] and in assay [3] was “significant inhibition of growth” in each case. The “cells in which induction of apoptosis was noted” value in assay [2] was found to be 50%. The “annexin V-FITC-positive cells” value in assay [4] is “progressive increase in annexin V-FITC-positive cells with time”. Also, the EC50 in assay [5] was 750 nM.
On to `O=C(O)/C=C/c1cnc(-c2ccc(O)c(C34CC5CC(CC(C5)C3)C4)c2)nc1` [Compound 16, (E)-3-[2-(3-(1-Adamantyl)-4-hydroxyphenyl)-5-pyrimidinyl]-2-propenoic acid], for which the inhibition of growth result in assay [1] and in assay [3] was “significant inhibition of growth” in each case. Moreover, in assay [2], the “cells in which induction of apoptosis was noted” value is reported as 50%. Besides, the “annexin V-FITC-positive cells” value in assay [4] is “progressive increase in annexin V-FITC-positive cells with time”. Further, the EC50 in assay [5] turned out to be 750 nM.
